Drawing on the OPERA property sets (Mansouri et al. 2018), this text covers solubility for 69 compounds.

Converted amounts (≈) assume the structure as drawn.

Conditions in the first data set: not given
On to `CCOC(=O)N(C)CC`, for which the solubility – broadly, the dissolved amount per volume that the medium holds – worked out at 381 mM (≈ 50 mg/mL). Compound `O=C(O)C1(O)CCCCC1` displayed a solubility of 465 mM (≈ 67 mg/mL). On the same count and under the same terms, for `CC(C)C(Br)C(=O)N[C@@H](C)C(=O)O` (mixture of isomers) the value was 329 mM (≈ 83 mg/mL); for `N[C@@H](Cc1cc([N+](=O)[O-])c(O)c([N+](=O)[O-])c1)C(=O)O`, 30.7 mM (≈ 8.33 mg/mL); for `O=C(Cc1ccccc1)N[C@@H](CSSC[C@H](NC(=O)Cc1ccccc1)C(=O)O)C(=O)O`, 14.7 mM (≈ 7 mg/mL). Still for that read-out and setting: for `O=S(=O)(O)c1cnc[nH]1` the value was 1350 mM (≈ 200 mg/mL); for `CC(=O)c1ccc(O)c(C(=O)O)c1`, 5.88 mM (≈ 1.06 mg/mL); for `O=C(O)C(S)CS` (centres undefined), 579 mM (≈ 80 mg/mL).

`C1COC2(C1)CCCO2` showed a solubility of 780 mM (≈ 100 mg/mL). Same read-out and setting: with `O=C(OCCCO)c1ccccc1` the figure was 55.5 mM (≈ 10 mg/mL); with `COc1ccc(NCC(O)CO)cc1` (centres undefined), 507 mM (≈ 100 mg/mL). Still for that read-out and setting: with `C=CC(O)C(=O)OCC` (centres undefined) the figure was 2310 mM (≈ 300 mg/mL); with `CC(C)[C@@H]1NC(=O)CNC1=O`, 128 mM (≈ 20 mg/mL); with `CN(C)CCCCl`, 633 mM (≈ 77 mg/mL).

Take `CCC(NC(=N)N)C(=O)O` (centres undefined): the solubility turned out to be 138 mM (≈ 20 mg/mL). Still for that read-out and setting: for `O=S(=O)(O)c1cc(O)c2cc(Nc3ccccc3)ccc2c1` the value was 10.6 mM (≈ 3.33 mg/mL); for `O=c1[nH]c(-c2ccccc2)ncc1Br`, 0.332 mM (≈ 0.0833 mg/mL); for `CC1NC(=O)CNC1=O` (centres undefined), 1950 mM (≈ 250 mg/mL).

With `CN1C(=O)C(N)C(=S)N(C)C1=O` (centres undefined), the solubility turned out to be 76.4 mM (≈ 14.3 mg/mL). For the compound `CCS(=O)(=O)CI`, the solubility came out at 107 mM (≈ 25 mg/mL). The same measure, in the same setting: for `CCOC(=O)N(CC)CC` the value was 86.1 mM (≈ 12.5 mg/mL); for `O=C(NCCc1c[nH]cn1)c1ccccc1`, 232 mM (≈ 50 mg/mL).

Compound `O=C1Cc2c(ccc3ccccc23)O1` returned a solubility of 1.96 mM (≈ 0.361 mg/mL). For `CC(=O)C(=O)Nc1ccccc1`, the solubility is 42.9 mM (≈ 7 mg/mL). As for `NC(CC(=O)O)c1cccc2ccccc12` (centres undefined), the solubility stood at 25.7 mM (≈ 5.53 mg/mL). `Cc1nn(-c2ccccc2)c(N)c1C`: the solubility was determined as 21.4 mM (≈ 4 mg/mL). Regarding `O=C(c1ccccc1)N(O)c1cccc2ccccc12`, the solubility was 0.494 mM (≈ 0.13 mg/mL).

As to `CCOC(=O)C(CC(=O)O)=C(c1ccccc1)c1ccccc1`, the solubility was 6.44 mM (≈ 2 mg/mL). Still for that read-out and setting: with `CC(C)OC(=O)C(C)(C)O` the figure was 1030 mM (≈ 150 mg/mL).

Turning to `CCCC(Br)(CCC)C(N)=O`, the solubility was 14.9 mM (≈ 3.3 mg/mL).

Consider `CCOC(C)C(=O)C=O` (centres undefined), for which the solubility is 699 mM (≈ 91 mg/mL). On the same count and under the same terms, for `CCOCCOC(=O)CCCCC(=O)OCCOCC` the value was 8.61 mM (≈ 2.5 mg/mL); for `CC1=CCCN1C`, 1340 mM (≈ 130 mg/mL); for `CCCCOCCOC(N)=O`, 310 mM (≈ 50 mg/mL).

Staying with this data set, now noted: 20 °C.
With `O=C(O)CC(O)C(=O)O` (centres undefined), the solubility was 5790 mM (≈ 777 mg/mL).

Consider `COC(=O)c1cc([N+](=O)[O-])ccc1C(=O)O`, for which the solubility is 19 mM (≈ 4.28 mg/mL). Turning to `NC(=O)C(Br)Br`, the solubility worked out at 87.6 mM (≈ 19 mg/mL). Still for that read-out and setting: with `CCOC(=O)c1[nH]c(C)cc1C` the figure was 2.39 mM (≈ 0.4 mg/mL); with `OCc1c(Cl)c(Cl)c(Cl)c(Cl)c1Cl`, 0.00713 mM (≈ 0.002 mg/mL).

For the compound `FC(F)(F)c1nc2ncncc2[nH]1`, the solubility turned out to be 354 mM (≈ 66.7 mg/mL). Still for that read-out and setting: for `O=c1[nH]ccc2cccnc12` the value was 72 mM (≈ 10.5 mg/mL); for `O=[N+]([O-])c1ccc(CO)cc1`, 13.1 mM (≈ 2 mg/mL).

Compound `CCCC(O)(CCC)C(O)c1ccccc1` (centres undefined) yielded a solubility of 2.25 mM (≈ 0.5 mg/mL). On the same count and under the same terms, for `O=C(O)CCP(=O)(O)O` the value was 3170 mM (≈ 488 mg/mL); for `CC(=O)Nc1ccc(Br)cc1C`, 17.5 mM (≈ 4 mg/mL); for `C=CS(=O)(=O)Nc1ccccc1`, 31.7 mM (≈ 5.8 mg/mL).

Regarding `Oc1cccc2ccnnc12`, the solubility worked out at 3.9 mM (≈ 0.57 mg/mL). The same measure, in the same setting: for `O=C(NCCO)C(=O)NCCO` the value was 772 mM (≈ 136 mg/mL).

`O=C(O)c1occ(Cl)c1Cl` had a solubility of 14.9 mM (≈ 2.7 mg/mL).

The compound `O=c1nccc[nH]1` had a solubility of 4730 mM (≈ 455 mg/mL). Still for that read-out and setting: for `Cc1cnnc2c(O)cccc12` the value was 2.1 mM (≈ 0.336 mg/mL).

Turning to `O=C(O)C(Br)=C(Br)I`, the solubility was determined as 95.6 mM (≈ 34 mg/mL). On the same count and under the same terms, for `Cn1c(=O)c2c(n(C)c1=O)n(C)c(=O)n2C` the value was 112 mM (≈ 25 mg/mL). Still for that read-out and setting: for `COc1ncc2nccnc2n1` the value was 77.1 mM (≈ 12.5 mg/mL). `COc1nsc(N)n1` had a solubility of 57.2 mM (≈ 7.5 mg/mL). In turn, `Cc1ccc(O)c(CO)c1` returned a solubility of 485 mM (≈ 67 mg/mL). On the same count and under the same terms, with `O=C(O)c1c(Cl)c(Cl)c(Cl)c(Cl)c1C(=O)O` the figure was 11.8 mM (≈ 3.6 mg/mL).

Turning to `O=C(O)Cc1ccccc1C(=O)O`, the solubility turned out to be 88.8 mM (≈ 16 mg/mL). The same measure, in the same setting: for `CCCCOC(=O)c1c(C(=O)O)cccc1[N+](=O)[O-]` the value was 1.91 mM (≈ 0.51 mg/mL); for `CN(C)c1ncnc2nccnc12`, 95.1 mM (≈ 16.7 mg/mL). On the same count and under the same terms, for `O=C(O)C(O)C(O)c1ccccc1` (centres undefined) the value was 494 mM (≈ 90 mg/mL); for `O=C(O)C1=CCCCC1`, 55.5 mM (≈ 7 mg/mL). Same read-out and setting: with `COc1cc(C(C)=O)ccc1O` the figure was 30.1 mM (≈ 5 mg/mL).

Compound `CSc1ncc2nccnc2n1` showed a solubility of 17.5 mM (≈ 3.13 mg/mL). On the same count and under the same terms, for `CC(C)c1nnc(NS(=O)(=O)c2ccc(N)cc2)s1` the value was 0.385 mM (≈ 0.115 mg/mL); for `Brc1ccc2c(c1)Sc1ccccc1N2`, 0.000773 mM (≈ 0.000215 mg/mL). `O=C(O)C=C(CC(=O)O)C(=O)O` returned a solubility of 2450 mM (≈ 427 mg/mL). Still for that read-out and setting: for `Clc1cnc2ncncc2n1` the value was 75 mM (≈ 12.5 mg/mL); for `CCC1(CC)C(=O)NC(=O)N=C1N`, 40.1 mM (≈ 7.35 mg/mL).
